Experimental data reported in patent publication US20160166631A1, “NUTRACEUTICAL COMBINATION FOR PREVENTION AND TREATMENT OF TYPE 2 DIABETES” (priority 2014, published 2016).

System: Type 2 diabetes patients
Experiment: Clinical trials: DiabetainC co-administered with Metformin or other anti-diabetes medications (Hb A1c, fasting blood glucose)
Type: in vivo, human
Protocol: Clinical trials have shown that “DiabetainC” supplements in accordance with this disclosure, when administered to Type 2 diabetes patients, lowers Hb A1c by an average of 1.7% when co-administered with Metformin, as compared with a 1.2% lowering of Hb A1c when Metformin is used by itself. This is a significant improvement. A 0.5% to 1% lowering of Hb A1c correlates with a 20% reduction in morbidity.
Clinical trials have shown an advantageous decrease in fasting blood glucose (FBG) of 72 mg/dL when co-administered with Metformin, as compared with a lowering of 48 mg/dL when Metformin is administered alone. […] These improvements are significant, as every 15 mg/dL to 40 mg/dL decrease in FBG reduces diabetes related heart diseases up to 50%.

## CN(C)C(=N)N=C(N)N [Metformin]
Metformin administered alone
  lowering of fasting blood glucose (FBG): 48 mg/dL
Type 2 diabetes patients, Metformin used by itself
  lowering of Hb A1c: 1.2%
